Results published in paper PMC9127750, “Structure-based design of CDC42 effector interaction inhibitors for the treatment of cancer” (Cell reports, 2022).

Tested on: WM3248 melanoma cells, 486 antibodies
Assay: Reverse phase protein arrays (RPPA);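 for RPPA ACC1.R.C: ratio of treated to vehicle (0 µM) normalized linear protein signal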;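 for RPPA AMPK.a2 pS345.R.V: ratio of treated to vehicle (0 µM) normalized linear protein signal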;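 for RPPA AMPKa pT172.R.C: ratio of treated to vehicle (0 µM) normalized linear protein signal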;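 for RPPA ASNS.R.V: ratio of treated to vehicle (0 µM) normalized linear protein signal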;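 for RPPA AceCS1.R.V: ratio of treated to vehicle (0 µM) normalized linear protein signal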;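 for RPPA Akt1.R.V: ratio of treated to vehicle (0 µM) normalized linear protein signal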;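 for RPPA Atg5.R.C: ratio of treated to vehicle (0 µM) normalized linear protein signal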
Type: cell-based, Human
Conditions: 10 uM
Description: Pellets were snap frozen in liquid nitrogen and shipped to MD Anderson Cancer Center core RPPA facility for RPPA analysis (Table S5). Three biological replicates for each sample were generated.
Nomenclatures on the RPPA heatmaps: name_of_antibody.species_of_antibody.status_of_antibody. V - antibody validated; C - validation of antibody in progress; Q - antibody nonspecific; E – under evaluation; antibodies raised in M - mouse, G - goat, R - rabbit, or T - rat.

Q: How did the “RPPA PAK_pS474_S602_S560.R.V Average” value turn out when `CN(C)c1cccc(Nc2cc(-c3ccccc3)nc(C3CCNCC3)n2)c1` [ARN22089, N1,N1-dimethyl-N3-(6-phenyl-2-(piperidin-4-yl)pyrimidin-4-yl)benzene-1,3-diamine] was run?
A: 1.085

Q: What about the “RPPA PAK_pT423_T402.R.C Average” value of the same compound?
A: 0.987

Q: What about the “RPPA PAR.R.C Average” value of the same compound?
A: 0.480

Q: And the “RPPA PARG.R.C Average” value?
A: 0.970

Q: What about the “RPPA PARP.R.V Average” value of the same compound?
A: 1.017

Q: And the “RPPA PAX6.R.V Average” value?
A: 1.003

Q: And the “RPPA PCNA.M.C Average” value?
A: 0.987

Q: And the “RPPA PD.1.R.V Average” value?
A: 1.058

Q: And the “RPPA PD.L1.R.C Average” value?
A: 0.976

Q: What about the “RPPA PDH.M.V Average” value of the same compound?
A: 1.031

Q: What about the “RPPA PDHA1.R.V Average” value of the same compound?
A: 0.986

Q: And the “RPPA PDHK1.R.C Average” value?
A: 0.952

Q: What about the “RPPA PDK1_pS241.R.V Average” value of the same compound?
A: 0.942

Q: And the “RPPA PEA.15.R.V Average” value?
A: 0.922

Q: And the “RPPA PERK.R.V Average” value?
A: 1.010

Q: What about the “RPPA PGM1.R.V Average” value of the same compound?
A: 0.998

Q: And the “RPPA PHLPP.R.V Average” value?
A: 1.083

Q: What about the “RPPA PI3K.p85.R.C Average” value of the same compound?
A: 1.062

Q: And the “RPPA PI3K.p110.a.R.C Average” value?
A: 0.904

Q: And the “RPPA PI3K.p110.b.M.C Average” value?
A: 0.987

Q: And the “RPPA PKA.a.R.V Average” value?
A: 0.877

Q: And the “RPPA PKC.a.b.II_pT638_T641.R.V Average” value?
A: 0.910

Q: And the “RPPA PKC.b.II_pS660.R.V Average” value?
A: 1.018

Q: What about the “RPPA PKCa.R.V Average” value of the same compound?
A: 0.991

Q: And the “RPPA PKM2.R.C Average” value?
A: 0.940

Q: What about the “RPPA PLC.gamma1.R.V Average” value of the same compound?
A: 1.083

Q: And the “RPPA PLC.gamma1_pS1248.R.V Average” value?
A: 0.999

Q: What about the “RPPA PLK1.R.C Average” value of the same compound?
A: 0.905

Q: And the “RPPA PR.R.V Average” value?
A: 1.064

Q: And the “RPPA PRAS40.M.C Average” value?
A: 1.049

Q: And the “RPPA PRAS40_pT246.R.V Average” value?
A: 0.957

Q: What about the “RPPA Patched.R.C Average” value of the same compound?
A: 0.971

Q: What about the “RPPA Paxillin.R.C Average” value of the same compound?
A: 0.830

Q: And the “RPPA Pdcd4.R.C Average” value?
A: 0.977

Q: What about the “RPPA Porin.M.V Average” value of the same compound?
A: 1.020

Q: And the “RPPA p21.R.C Average” value?
A: 1.010

Q: What about the “RPPA p27.Kip1.R.C Average” value of the same compound?
A: 1.046

Q: What about the “RPPA p27_pT157.R.C Average” value of the same compound?
A: 1.014

Q: And the “RPPA p27_pT198.R.V Average” value?
A: 1.168

Q: And the “RPPA p38.MAPK.R.V Average” value?
A: 0.975

Q: And the “RPPA p38.a.M.V Average” value?
A: 1.028

Q: What about the “RPPA p53.R.C Average” value of the same compound?
A: 0.908

Q: What about the “RPPA p70.S6K1.R.V Average” value of the same compound?
A: 0.918

Q: What about the “RPPA p70.S6K_pT389.R.V Average” value of the same compound?
A: 0.996

Q: And the “RPPA p90RSK_pT573.R.C Average” value?
A: 1.053

Q: And the “RPPA A.Raf.R.V” value (10W1)?
A: 0.962

Q: What about the “RPPA ACC1.R.C” value (10W1) of the same compound?
A: 1.063

Q: And the “RPPA ACC_pS79.R.V” value (10W1)?
A: 0.772

Q: And the “RPPA ACLY_pS455.R.V” value (10W1)?
A: 1.099

Q: What about the “RPPA ACSL1.R.V” value (10W1) of the same compound?
A: 0.988

Q: What about the “RPPA ACVRL1.R.C” value (10W1) of the same compound?
A: 1.018

Q: What about the “RPPA ADAR1.M.V” value (10W1) of the same compound?
A: 1.194

Q: What about the “RPPA ALKBH5.R.V” value (10W1) of the same compound?
A: 0.984

Q: What about the “RPPA AMPK.a2_pS345.R.V” value (10W1) of the same compound?
A: 1.028

Q: What about the “RPPA AMPKa.R.C” value (10W1) of the same compound?
A: 0.972

Q: And the “RPPA AMPKa_pT172.R.C” value (10W1)?
A: 0.665

Q: And the “RPPA AR.R.V” value (10W1)?
A: 0.830

Q: What about the “RPPA ASNS.R.V” value (10W1) of the same compound?
A: 0.786

Q: What about the “RPPA ATM_pS1981.R.V” value (10W1) of the same compound?
A: 1.131

Q: What about the “RPPA ATP5A.M.C” value (10W1) of the same compound?
A: 0.979

Q: And the “RPPA ATP5H.R.V” value (10W1)?
A: 1.113

Q: What about the “RPPA ATRX.R.C” value (10W1) of the same compound?
A: 1.033

Q: And the “RPPA ATR_pS428.R.C” value (10W1)?
A: 0.934

Q: And the “RPPA AceCS1.R.V” value (10W1)?
A: 0.931

Q: What about the “RPPA Akt1.R.V” value (10W1) of the same compound?
A: 0.892

Q: And the “RPPA Akt1_pS473.R.V” value (10W1)?
A: 0.970

Q: What about the “RPPA Akt2.R.V” value (10W1) of the same compound?
A: 0.959

Q: What about the “RPPA Akt2_pS474.R.C” value (10W1) of the same compound?
A: 1.062

Q: What about the “RPPA Akt.R.V” value (10W1) of the same compound?
A: 0.917

Q: What about the “RPPA Akt_pS473.R.V” value (10W1) of the same compound?
A: 1.128

Q: And the “RPPA Akt_pT308.R.V” value (10W1)?
A: 0.936

Q: What about the “RPPA Ambra1_pS52.R.C” value (10W1) of the same compound?
A: 1.051

Q: What about the “RPPA Annexin.I.M.V” value (10W1) of the same compound?
A: 1.059

Q: And the “RPPA Annexin.VII.M.V” value (10W1)?
A: 1.077

Q: And the “RPPA Atg3.R.V” value (10W1)?
A: 0.970

Q: What about the “RPPA Atg4B.R.C” value (10W1) of the same compound?
A: 0.890

Q: And the “RPPA Atg5.R.C” value (10W1)?
A: 0.920

Q: And the “RPPA Atg7.R.V” value (10W1)?
A: 0.855

Q: What about the “RPPA Aurora.A.R.C” value (10W1) of the same compound?
A: 0.735

Q: What about the “RPPA Aurora.ABC_pT288_pT232_pT198.R.C” value (10W1) of the same compound?
A: 0.857

Q: What about the “RPPA Aurora.B.R.V” value (10W1) of the same compound?
A: 1.102

Q: What about the “RPPA Axl.R.V” value (10W1) of the same compound?
A: 0.724
